Data set [1] concerns rat model of chronic kidney disease (CKD) via 5/6 nephrectomy. Put plainly: JZL184 in rat 5/6 nephrectomy model of chronic kidney disease. Conditions: CKD rats, 4 weeks. Type of data set: in vivo, male Sprague-Dawley rats. How it is done: (§1) We used a well-known experimental tool, JZL184, which inhibits the enzyme responsible for breakdown of 2-AG, monoacylglycerol lipase (MGL), to determine the effect of increased tissue 2-AG levels on markers of renal function in animal models of chronic kidney disease (CKD). JZL184 was administered intraperitoneally in a well-established rat and mouse model of chronic kidney disease (CKD) (FIG. 8).
(§2) Therefore, we induced CKD in animals via 5/6 nephrectomy (surgical removal of one entire kidney in addition to 2/3 of the contralateral kidney which results in significant renal mass reduction and development of kidney failure over 6-10 weeks) in two separate studies (one set in rats and one set in mice).
In the rats, male Sprague-Dawley rats underwent 5/6 nephrectomy versus sham surgery and after two weeks were randomized to 4 groups: sham surgery, CKD treated with vehicle, CKD treated with 4 mg/kg JZL184 and CKD treated with 8 mg/kg JZL184 (n=6-8). During and at the end of the study, non-invasive blood pressure measurements were performed using tail-cuff plethysmography. Before sacrifice, a 24-hour urine sample was collected and evaluated for urine protein and creatinine to assess for degree of proteinuria (degree of proteinuria is a marker of glomerular and interstitial kidney damage in advanced CKD). After sacrifice, serum was obtained to assess for renal function. […] This was associated reduced systolic blood pressure and decreased rate of urine protein excretion.

Data set [2] relates to mouse model of chronic kidney disease (CKD) via 5/6 nephrectomy. Put plainly: JZL184 in mouse 5/6 nephrectomy model of chronic kidney disease. The data set is classed as in vivo, Male C57BL/6J mice. The note with it: CKD mice, JZL184 4 mg/kg, 4 weeks; FIG. 12. The procedure:
as §1, §2
We performed a similar experiment in mice. Male C57BL/6J mice underwent sham surgery versus 5/6 nephrectomy to induce CKD and two weeks after surgery were randomized to vehicle versus JZL184 therapy (4 mg/kg). Treated animals received JZL184 (4 mg/kg) for an additional 4 weeks (FIG. 11).

The subject of data set [3] is monoacylglycerol lipase (MGL). The note with it: cited from earlier work.
The mark [4] stands for this setting: JZL184 4 or 8 mg/kg intraperitoneal, FIG. 9.

`O=C(Oc1ccc([N+](=O)[O-])cc1)N1CCC(C(O)(c2ccc3c(c2)OCO3)c2ccc3c(c2)OCO3)CC1` [JZL184, 4-nitrophenyl-4-(dibenzo[d][1,3]dioxol-5-yl(hydroxy)methyl)piperidine-1-carboxylate]: in data set [1] (setting [4]), the “cerebral cortex 2-AG concentration” value is listed as “significant increase” and the “renal 2-AG concentration” value is given as “significant increase”. Besides, the “rate of urine protein excretion” value in data set [1] (JZL184 4 or 8 mg/kg, 24-hour urine, FIG. 10) is listed as “decreased”. The “renal function (serum)” value in data set [1] (JZL184 4 or 8 mg/kg, FIG. 10) was “signal toward improved renal function”. The systolic blood pressure entry in data set [1] (JZL184 4 or 8 mg/kg, tail-cuff plethysmography, FIG. 10) was “reduced”. For the same compound, in data set [2], the blood pressure entry is “significant improvement”, the “serum BUN concentration” value is reported as “reduced” and the urinary protein excretion result is “decreased”. In data set [3] (4 mg/kg in mice and 4-8 mg/kg in rats, have been shown (prior work)), the “overt symptoms of endocannabinoid activation in the central nervous system” value is reported as “without causing overt symptoms”. The “brain and kidney levels of 2-AG” value in data set [3] (has been shown (prior work)) is listed as “significantly increase”.

(Values after US20210267959A1, “METHODS OF TREATING RENAL DISEASE” (The Regents of the University of California, priority 2018, published 2021).)
